We go through one molecule from publication PMC12670317, “Targeted NAT10 Degradation by PROTAC NP1192 Suppresses Hypoxia-Adaptive Glycolysis and Reinvigorates CD8^+ Effector T‑Cell Function for Synergistic Cancer Immunotherapy” (ACS Central Science, 2025).

Experiment [1] relates to SiHa cells. The experiment is described as follows: Colony formation assay in SiHa cells. The settings on record: pretreated 20 μM 36 h, 2 weeks. The class given is cell-based, human. The protocol: NAT10^± SiHa cells and SiHa cells treated with DMSO, Remodelin or NP1192 for 36 h were seeded into the wells of a 6-well microplate at identical densities of 2000 or 3000 cells per well. The cells were then incubated in the incubator for at least 2 weeks to form colonies. After the incubation period, the cells were fixed with formalin and then stained with crystal violet. The colonies were then counted via a microscope. The number and size of the colonies in the experimental groups were compared.

The subject of experiment [2] is glioblastoma (GBM) patient-derived organoids. The experiment is described as follows: ATP-based viability assay in patient-derived organoids, GBM. The settings on record: Homo sapiens, GBM PDOs, read-out: IC50, organoid viability. In kind it is cell-based. The protocol:
(§1) Organoid culture was performed according to previously established protocols. Briefly, we procured patient-derived tissue samples provided and technically manipulated by Accurate International Biotechnology Co., Ltd. Subsequently, these samples were subjected to mechanical and enzymatic dissociation to disaggregate the tissue into single cells or small clusters, while preserving cellular integrity. Following this initial step, the isolated cells or tissue fragments were embedded within a 3D ECM scaffold, such as Matrigel or collagen. The ECM scaffold served as a supportive substrate, promoting cellular self-organization and mimicking native tissue architecture. Additionally, a precisely formulated cocktail of growth factors, cytokines, and signaling molecules tailored to the specific tissue of interest was meticulously formulated and added to the culture medium to facilitate organoid growth and maintenance.

Experiment [3] concerns SiHa cells. The experiment is described as follows: Transwell invasion assay in SiHa cells. The class given is cell-based, human. The following applies: pretreated 20 μM 36 h, 12 h. The protocol: The Transwell chamber was assembled by coating the porous membrane insert in the top compartment with Matrigel to form a layer of extracellular matrix (ECM), and the top compartment was placed into a cell culture plate. NAT10^± SiHa cells and SiHa cells treated with DMSO, Remodelin or NP1192 for 36 h were collected and resuspended in serum-free medium at a density of 10,000 cells/200 μL of medium. Then, the cell suspension was added to the top compartment of the Transwell chamber, and the plate was placed in the incubator for 12 h. After incubation, the cells on the bottom surface of the membrane were fixed and stained. The cells were visualized under a microscope, and the number of cells that migrated through the membrane was determined via ImageJ software.

A further experiment relates to PD-L1. The experiment is described as follows: PD-L1 protein level in SiHa cells, Western blot. The following applies: 36 h. In kind it is cell-based, human. The protocol: RIPA lysis buffer (Beyotime, China) mixed with 1% protease inhibitor (Sigma, US) was added to the cells, and a sample of total protein was obtained and then loaded onto an 8% or 12% polyacrylamide gel. The gel was placed in a buffer solution, and an electric current was applied. The separated proteins were subsequently transferred from the gel onto a PVDF membrane. Next, the membrane was blocked with 5% milk for 1 h to prevent nonspecific antibody binding. The membranes were subsequently incubated with anti-NAT10 (1:1000, Abcam, USA), anti-PD-L1 (1:1000, Proteintech, China), anti-HIF-1α (1:1000, Abmart, China), and anti-β-tubulin (1:1000, Proteintech, China) primary antibodies for 12 h. Afterward, the membrane was sequentially washed with 1× TBST and incubated for 1 h with an antimouse secondary antibody (1:6000, Elabscience, China) or antirabbit secondary antibody (1:6000, Elabscience, China). The target proteins were detected via chemiluminescence with a ChemiDoc MP Imaging System (Bio-Rad, US).
A general note: A western blot detects proteins with antibodies after separation by electrophoresis.

The next experiment deals with T1, NAT10 (Mus musculus, UniProt Q8K224).
T1 construct: nearly 70% reduction in the NAT10 protein content in murine U14 cervical cells after 36 h; endogenous in cells; host or cells: U14 (murine cervical carcinoma cell line, RRID:CVCL_9U56)
T1 sequence (Q8K224 1-1024): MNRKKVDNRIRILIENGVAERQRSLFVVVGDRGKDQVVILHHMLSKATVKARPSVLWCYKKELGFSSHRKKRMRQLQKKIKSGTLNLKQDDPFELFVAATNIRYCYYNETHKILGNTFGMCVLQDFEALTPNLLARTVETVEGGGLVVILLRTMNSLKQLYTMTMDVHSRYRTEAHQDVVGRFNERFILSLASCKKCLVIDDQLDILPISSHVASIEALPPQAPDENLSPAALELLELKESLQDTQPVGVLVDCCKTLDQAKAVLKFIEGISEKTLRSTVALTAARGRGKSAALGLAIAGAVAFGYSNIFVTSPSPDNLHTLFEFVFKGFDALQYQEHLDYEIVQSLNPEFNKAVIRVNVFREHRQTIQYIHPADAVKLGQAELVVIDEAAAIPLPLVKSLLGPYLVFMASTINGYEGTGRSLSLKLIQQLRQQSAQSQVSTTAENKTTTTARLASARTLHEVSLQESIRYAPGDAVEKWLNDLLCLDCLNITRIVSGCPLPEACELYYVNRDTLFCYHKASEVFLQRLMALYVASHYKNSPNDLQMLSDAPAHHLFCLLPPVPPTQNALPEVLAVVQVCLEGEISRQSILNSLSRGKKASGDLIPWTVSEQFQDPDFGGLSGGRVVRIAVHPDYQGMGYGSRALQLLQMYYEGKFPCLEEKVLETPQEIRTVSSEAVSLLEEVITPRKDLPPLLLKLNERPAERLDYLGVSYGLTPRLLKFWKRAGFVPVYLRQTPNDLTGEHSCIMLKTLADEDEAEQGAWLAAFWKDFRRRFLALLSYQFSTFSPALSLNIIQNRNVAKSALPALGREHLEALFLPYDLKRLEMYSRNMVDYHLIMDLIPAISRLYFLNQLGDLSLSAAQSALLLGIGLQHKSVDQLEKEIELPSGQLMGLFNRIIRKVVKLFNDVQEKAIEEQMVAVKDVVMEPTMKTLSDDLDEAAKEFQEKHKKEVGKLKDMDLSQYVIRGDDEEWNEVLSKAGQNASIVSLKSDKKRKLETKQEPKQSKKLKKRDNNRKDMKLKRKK
The experiment is described as follows: NAT10 degradation in U14 cells, Western blot. The settings on record: murine U14 cervical cells, same treatment (20 μM), 36 h. In kind it is cell-based. The protocol: The human CCa cell line SiHa and the normal epithelial foreskin fibroblast line HFF-1 were purchased from the Cell Bank of the Chinese Academy of Sciences. Additionally, murine cervical carcinoma cell line U14 (RRID:CVCL_9U56) was purchased from Boster Company. HFF-1 and U14 cells were cultured in Dulbecco’s modified Eagle’s medium (DMEM) (Gibco, USA) supplemented with 10% heat-inactivated fetal bovine serum (FBS; Gibco, USA), while SiHa cells were incubated in RPMI 1640 medium (Gibco, USA) in a humid atmosphere with 5% CO2 at 37 °C. For hypoxia exposure, the cells were incubated in a sealed culture tank containing 5% CO2 and 0.1% O2 (MGC, Japan) for 36 h.
RIPA lysis buffer (Beyotime, China) mixed with 1% protease inhibitor (Sigma, US) was added to the cells, and a sample of total protein was obtained and then loaded onto an 8% or 12% polyacrylamide gel. The gel was placed in a buffer solution, and an electric current was applied. The separated proteins were subsequently transferred from the gel onto a PVDF membrane. Next, the membrane was blocked with 5% milk for 1 h to prevent nonspecific antibody binding. […] The target proteins were detected via chemiluminescence with a ChemiDoc MP Imaging System (Bio-Rad, US).

For experiment [4], the system named is high-grade serous ovarian carcinoma (OV) patient-derived organoids. The experiment is described as follows: ATP-based viability assay in patient-derived organoids, OV. The following applies: Homo sapiens, OV PDOs, read-out: IC50, organoid viability. The class given is cell-based. The protocol:
as §1

Broadly, the IC50 is the point on the concentration scale where inhibition reaches its midpoint. With `N#Cc1ccc(-c2csc(N(CCCCCCC(=O)N3CCN(c4cccc5c4C(=O)N(C4CCC(=O)NC4=O)C5=O)CC3)N=C3CCCC3)n2)cc1` (stereo not drawn) [NP1192], the colony formation capacity result in the experiment with SiHa cells [1] was “substantial decrease in colony formation capacity”. The IC50 in experiment [2] is 13.8 µM; in experiment [4], 9.95 µM. The cell invasion entry with SiHa cells [3] is “substantially hindered CCa cell invasion”. In addition, the PD-L1 protein level entry with PD-L1 is given as “pronounced downregulation of PD-L1”. For the same molecule, the “reduction in NAT10 protein content” value on NAT10 is on record as around 70%.
